Data reported in PMC11079024, “Identification of a family of species-selective complex I inhibitors as potential anthelmintics” (Nature Communications, 2024).
pIC50: −log10 of the molar value. Several values for one entry are separate records, joined by “and”; a condition that tells them apart may be missing. Identical values can stand only once. Like-named read-outs stand apart in the source and are kept apart here.

Molecular target: P. pacificus complex I (Pristionchus pacificus, UniProt A0A454XZ18+A0A8R1Z3U8+A4UAP3)
Experiment: In vitro complex I activity assay, P. pacificus mitochondria
Type: biochemical
Experimental: Mitochondria were isolated from the following free-living nematode strains: C. elegans—N2, CB3474, ECA882, ECA917, ECA1075, ECA1080; C. briggsae—AF16; P. pacificus—PS312; and P. hermaphrodita—B178. With the exception of the P. hermaphrodita strain B178, adult worms of each strain were grown in bulk through liquid culture to obtain mitochondria in sufficient quantities. Due to poor growth in liquid media, mixed stage populations of P. hermaphrodita were washed off and collected from NGM plates seeded with OP50. The isolation of mitochondria from all free-living nematode strains followed the protocol previously outlined in Burns et al.[24]. In brief, a 1 L saturated culture of E. coli HB101 was concentrated 20-fold in 50 mL complete S-medium. ~500,000 L1 worms synchronized from an embryo preparation performed the day prior were added to the S-media/HB101 suspension and grown to adulthood over the course of 3.5 days at 20 °C with shaking at 165 rpm. Following growth, worms were collected in 10 ×15 mL conical tubes and washed 7 times in M9 buffer. Worm suspensions were then combined into a single 15 mL conical tube and diluted to a final volume of 15 mL with M9 buffer. 1 mL aliquots of worm suspension were then distributed to 15 × 1.5 mL screw-cap microcentrifuge tubes and were pelleted at 500 g for 1 min. Excess M9 was aspirated without disturbing the worm pellet. 600 μL ice-cold isolate buffer A (250 mM sucrose, 10 mM Tris (pH 7.5), 1 mM EDTA, 1 mM PMSF (freshly prepared)) and 300 μL cold glass beads were then added to each tube. Tubes were incubated on ice for 10 min, and the worms were then lysed by bead beating (6 x 30 s, with 1 min cooling intervals). Tubes containing worm lysate were centrifuged at 1,000 g for 10 min at 4 °C and the supernatant was transferred to 15 new microcentrifuge tubes on ice. The tubes were centrifuged a second time at 1,000 g for 10 min at 4 °C and the supernatant was once again transferred to 15 new microcentrifuge tubes on ice. These tubes were then centrifuged at 16,000 g for 10 min at 4 °C. The resulting mitochondrial pellet was washed twice by re-suspension in 300 μL of ice-cold isolate buffer B (250 mM sucrose, 10 mM Tris (pH 7.5), 1 mM EDTA). Following the final wash, isolation buffer was aspirated from each tube and the pellets were flash-frozen in ethanol/dry ice and stored at −80 °C until needed.
The enzymatic activities of individual ETC complexes (I-IV) were assessed spectrophotometrically in isolated mitochondria using a Varioskan LUX Multimode plate reader (ThermoFisher Scientific). Mitochondrial pellets previously isolated were thawed on ice and resuspended in ice-cold isolation buffer (250 mM sucrose, 10 mM Tris (pH 7.5), 1 mM EDTA). The BCA assay (Walker, 1994) was used to quantify the protein concentration of mitochondria suspensions; solutions were diluted to a concentration of 0.2 mg/mL for use in all assays. For the complex I assay, mitochondria pellets were freeze-thawed on ice three times to increase enzyme accessibility. […] 20 μL mitochondria suspension was then added/mixed with a pipette to initiate the reaction. Immediately following the addition of mitochondria, absorbance was measured (complex I and II: 600 nm; complex III and IV: 550 nm) in 30 s intervals over 15 min. Enzymatic activity was determined in each reaction by plotting absorbance versus time and calculating the slope of the curve during the initial linear phase of the reaction. […] Percent activity of each complex was calculated by dividing the enzyme-specific activity of each well by the enzyme-specific activity of the corresponding solvent controls.
Chemical solutions were prepared in complex I assay buffer composed of 25 mM KPi buffer (pH 7.5), 3 mg/mL bovine serum albumin (BSA), 80 μM NADH, 60 μM decylubiquinone, 160 μM DCIP, 2 μM antimycin A and 2 mM KCN. […]

Cc1nc2ccccc2n1Cc1ccc(Cl)cc1 [STK697993]
remaining activity at 0.0001 µM (P. pacificus mitochondria, 0.0001 µM, Mean, read-out: in vitro complex I activity relative to solvent control): 94.6%
in vitro complex I activity relative to solvent control (P. pacificus mitochondria, 0.0001 µM, single replicate): 101.484% and 94.523%
remaining activity at 0.0001 µM (P. pacificus mitochondria, 0.0001 µM, single replicate, read-out: in vitro complex I activity relative to solvent control): 87.6%
remaining activity at 0.0005 µM (P. pacificus mitochondria, 0.0005 µM, Mean, read-out: in vitro complex I activity relative to solvent control): 77.4%
in vitro complex I activity relative to solvent control (P. pacificus mitochondria, 0.0005 µM, single replicate): 88.361% and 49.299%
remaining activity at 0.001 µM (P. pacificus mitochondria, 0.001 µM, Mean, read-out: in vitro complex I activity relative to solvent control): 107%
in vitro complex I activity relative to solvent control (P. pacificus mitochondria, 0.001 µM, single replicate): 104.362% and 121.410% and 94.602%
remaining activity at 0.0025 µM (P. pacificus mitochondria, 0.0025 µM, Mean, read-out: in vitro complex I activity relative to solvent control): 102%
in vitro complex I activity relative to solvent control (P. pacificus mitochondria, 0.0025 µM, single replicate): 89.591% and 126.458% and 89.566%
remaining activity at 0.005 µM (P. pacificus mitochondria, 0.005 µM, Mean, read-out: in vitro complex I activity relative to solvent control): 96.6%
in vitro complex I activity relative to solvent control (P. pacificus mitochondria, 0.005 µM, single replicate): 89.435% and 110.953% and 89.424%
remaining activity at 0.013 µM (P. pacificus mitochondria, 0.013 µM, Mean, read-out: in vitro complex I activity relative to solvent control): 82.8%
in vitro complex I activity relative to solvent control (P. pacificus mitochondria, 0.013 µM, single replicate): 85.370% and 80.753%
remaining activity at 0.013 µM (P. pacificus mitochondria, 0.013 µM, single replicate, read-out: in vitro complex I activity relative to solvent control): 82.3%
remaining activity at 0.025 µM (P. pacificus mitochondria, 0.025 µM, Mean, read-out: in vitro complex I activity relative to solvent control): 81.8%
in vitro complex I activity relative to solvent control (P. pacificus mitochondria, 0.025 µM, single replicate): 78.182% and 98.911% and 68.184%
remaining activity at 0.063 µM (P. pacificus mitochondria, 0.063 µM, Mean, read-out: in vitro complex I activity relative to solvent control): 55.6%
in vitro complex I activity relative to solvent control (P. pacificus mitochondria, 0.063 µM, single replicate): 59.066% and 53.138%
remaining activity at 0.063 µM (P. pacificus mitochondria, 0.063 µM, single replicate, read-out: in vitro complex I activity relative to solvent control): 54.5%
remaining activity at 0.125 µM (P. pacificus mitochondria, 0.125 µM, Mean, read-out: in vitro complex I activity relative to solvent control): 36.1%
in vitro complex I activity relative to solvent control (P. pacificus mitochondria, 0.125 µM, single replicate): 35.771% and 33.806%
remaining activity at 0.125 µM (P. pacificus mitochondria, 0.125 µM, single replicate, read-out: in vitro complex I activity relative to solvent control): 38.7%
remaining activity at 0.313 µM (P. pacificus mitochondria, 0.313 µM, Mean, read-out: in vitro complex I activity relative to solvent control): 20.5%
in vitro complex I activity relative to solvent control (P. pacificus mitochondria, 0.313 µM, single replicate): 25.713% and 19.065%
remaining activity at 0.313 µM (P. pacificus mitochondria, 0.313 µM, single replicate, read-out: in vitro complex I activity relative to solvent control): 16.8%
remaining activity at 0.625 µM (P. pacificus mitochondria, 0.625 µM, Mean, read-out: in vitro complex I activity relative to solvent control): 17.3%
in vitro complex I activity relative to solvent control (P. pacificus mitochondria, 0.625 µM, single replicate): 22.397% and 7.371% and 22.004%
remaining activity at 1.5 µM (P. pacificus mitochondria, 1.5 µM, Mean, read-out: in vitro complex I activity relative to solvent control): 18.5%
in vitro complex I activity relative to solvent control (P. pacificus mitochondria, 1.5 µM, single replicate): 23.927% and 2.400% and 29.263%
remaining activity at 3 µM (P. pacificus mitochondria, 3 µM, Mean, read-out: in vitro complex I activity relative to solvent control): 15.2%
in vitro complex I activity relative to solvent control (P. pacificus mitochondria, 3 µM, single replicate): 21.335% and 0.000% and 24.340%
remaining activity at 15 µM (P. pacificus mitochondria, 15 µM, Mean, read-out: in vitro complex I activity relative to solvent control): 7.59%
in vitro complex I activity relative to solvent control (P. pacificus mitochondria, 15 µM, single replicate): 11.369% and 0.506% and 10.901%
remaining activity at 37.5 µM (P. pacificus mitochondria, 37.5 µM, Mean, read-out: in vitro complex I activity relative to solvent control): 7.5%
in vitro complex I activity relative to solvent control (P. pacificus mitochondria, 37.5 µM, single replicate): 6.933% and 4.878% and 10.703%
remaining activity at 75 µM (P. pacificus mitochondria, 75 µM, Mean, read-out: in vitro complex I activity relative to solvent control): 4.35%
in vitro complex I activity relative to solvent control (P. pacificus mitochondria, 75 µM, single replicate): 3.580% and 5.152%
remaining activity at 75 µM (P. pacificus mitochondria, 75 µM, single replicate, read-out: in vitro complex I activity relative to solvent control): 4.33%
pIC50 (purified mitochondria): 7.15
